Measurements reported in patent US8952150B2, “Prostaglandin transporter inhibitors and uses thereof” (Albert Einstein College of Medicine of Yeshiva University, priority 2009, dated 2015).

Target: rat PGT (Rattus norvegicus (Rat), UniProt Q00910)
Test: [3H]PGE2 uptake inhibition in MDCK cells stably transfected with rat PGT (percent inhibition and IC50)
Assay type: cell-based
Conditions: for Inh (% of Ctl) 0.1 μM: 0.1 μM compound; for Inh (% of Ctl) 0.1 μM / Inh (% of Ctl) 0.5 μM / Inh (% of Ctl) 1 μM / Inh (% of Ctl) 5 μM / Inh (% of Ctl) 10 μM / Inh (% of Ctl) 2.5 μM: inhibition of [3H]PGE2 uptake; for Inh (% of Ctl) 0.5 μM: 0.5 μM compound; for Inh (% of Ctl) 1 μM: 1 μM compound; for Inh (% of Ctl) 5 μM: 5 μM compound; for Inh (% of Ctl) 10 μM: 10 μM compound; for IC50: [3H]PGE2 uptake, MDCK cells stably transfected with rat PGT; for Inh (% of Ctl) 2.5 μM: 2.5 μM compound
Procedure: MDCK cells stably transfected with rat PGT (Endo et al., 2002) were seeded at 15-20% confluence on 24-well plates. The day on which the cells were seeded was considered day 1. PGE2 uptake experiments were conducted on day 4. All of the PGE2 uptake experiments were conducted at room temperature. On day 4, cells were washed twice with Waymouth buffer (135 mM NaCl, 13 mM H-Hepes, 13 mM Na-Hepes, 2.5 mM CaCl2, 1.2 mM MgCl2, 0.8 mM MgSO4, 5 mM KCl, and 28 mM D-glucose). Then 200 μL of Waymouth buffer containing [^3H]PGE2 (purchased from Perkin Elmer) was added to each well. At the designed time, the uptake of [^3H]PGE2 was stopped by aspiration of uptake buffer; this was followed by immediate washing twice with 500 μL of chilled Waymouth buffer. Cells were then lysed with 100 μL lysis buffer containing 0.25% SDS and 0.05 N NaOH. 1.5 mL of scintillation solution was added to each well, and intracellular [^3H]PGE2 was counted by MicroBeta Counter.
For preliminary testing of the compounds, 20 μL of Waymouth buffer containing the compound was added to each well; this was immediately followed by the addition of 180 μL of Waymouth buffer containing [^3H]PGE2. In each well, the total volume of uptake medium was 200 μL. Organic compounds were first dissolved in EtOH and then diluted in Waymouth buffer. The percent inhibition of [^3H]PGE2 uptake by compounds was calculated as [(uptakevehicle−uptakeinhibitor)÷(uptakevehicle)]×100.
IC50 was calculated by fitting an equation of y=m1−m1*(m0/(m2+m0)).

SMILES	Inh (% of Ctl) 0.1 μM	Inh (% of Ctl) 0.5 μM	Inh (% of Ctl) 1 μM	Inh (% of Ctl) 5 μM	Inh (% of Ctl) 10 μM	IC50	Inh (% of Ctl) 2.5 μM
O=C(O)c1ccc(Nc2nc(NCCOCCOCCNC(=O)c3ccccc3)nc(Nc3ccccc3)n2)cc1 [compound 58]	–	–	16.25 % of Ctl	41.0 % of Ctl	52.5 % of Ctl	–	–
CN(c1ccc(C(=O)NCc2ccccc2)cc1)c1nc(NCCOCCOCCNC(=O)c2ccccc2)nc(Nc2ccc(O)cc2)n1 [compound 124]	68.8 % of Ctl	85.4 % of Ctl	–	–	–	34 nM	–
COC(=O)c1ccc(Nc2nc(NCCOCCOCCNC(=O)c3ccccc3)nc(Nc3ccccc3)n2)cc1 [compound 61]	–	–	7.5 % of Ctl	–	46.1 % of Ctl	–	–
O=C(O)C(F)(F)F.[N-]=[N+]=NCCOCCOCCNC(=O)c1ccc(Nc2nc(NCCOCCOCCNC(=O)c3ccccc3)nc(Nc3ccc(O)cc3)n2)cc1 [compound 8]	–	52.3 % of Ctl	–	–	–	224 nM	–
O=C(NCCOCCOCCNc1nc(NCCOCCOCCNC(=O)c2ccccc2)nc(Nc2ccc(O)cc2)n1)c1ccccc1 [compound 151]	–	0.7 % of Ctl	8.4 % of Ctl	–	–	–	–
CN(C)c1nc(NCCOCCOCCNC(=O)c2ccccc2)nc(Nc2ccc(O)cc2)n1 [compound 9]	–	1.3 % of Ctl	–	18.8 % of Ctl	–	–	–
O=C(O)c1ccc(Nc2nc(NCCOCCOCCNC(=O)c3ccccc3)nc(Nc3ccc(O)cc3)n2)cc1 [compound 13]	–	19.2 % of Ctl	–	19.3 % of Ctl	–	–	–
O=C(NCCOCCNc1nc(Nc2ccc(O)cc2)nc(Nc2ccc(C(=O)NCc3ccccc3)cc2)n1)c1ccccc1 [compound 118]	74.2 % of Ctl	90.7 % of Ctl	–	–	–	20.9 nM	–
O=C(NCc1ccccc1)c1ccc(Nc2nc(NCCOCCNS(=O)(=O)c3ccccc3)nc(Nc3ccc(O)cc3)n2)cc1 [compound 138]	17.8 % of Ctl	22.5 % of Ctl	34.5 % of Ctl	–	–	–	–

The remaining lines, values ahead:

Inh (% of Ctl) 0.1 μM	Inh (% of Ctl) 0.5 μM	Inh (% of Ctl) 1 μM	Inh (% of Ctl) 5 μM	Inh (% of Ctl) 10 μM	IC50	Inh (% of Ctl) 2.5 μM	SMILES
12.7 % of Ctl	22.0 % of Ctl	43.5 % of Ctl	–	–	–	–	O=C(NCc1ccccc1)c1ccc(Nc2nc(NCCOCCNCc3ccccc3)nc(Nc3ccc(O)cc3)n2)cc1 [compound 141]
4.3 % of Ctl	12.6 % of Ctl	19.4 % of Ctl	–	–	–	–	N[C@H](Cc1ccccc1)C(=O)NCCOCCNc1nc(Nc2ccc(O)cc2)nc(Nc2ccc(C(=O)NCc3ccccc3)cc2)n1 [compound 133]
–	1.8 % of Ctl	–	23.2 % of Ctl	–	–	4.3 % of Ctl	O=C(NCCOCCOCCNc1nc(Nc2ccc(O)cc2)nc(Nc2ccc3c(c2)C(=O)NC3=O)n1)c1ccccc1 [compound 77]
–	–	14.2 % of Ctl	–	62.8 % of Ctl	–	–	O=C(O)CCCCCCNC(=O)c1ccc(Nc2nc(NCCOCCOCCNC(=O)c3ccccc3)nc(Nc3ccc(O)cc3)n2)cc1 [compound 48]
46.6 % of Ctl	61.6 % of Ctl	–	91.6 % of Ctl	–	–	87.8 % of Ctl	O=C(NCCOCCOCCNc1nc(Nc2ccc(O)cc2)nc(Nc2ccc(C(=O)NCc3ccc(Cl)c(Cl)c3)cc2)n1)c1ccccc1 [compound 104]
–	–	20.4 % of Ctl	–	50.1 % of Ctl	–	–	O=C(NCCCCCCNc1nc(Nc2ccccc2)nc(Nc2ccc(O)cc2)n1)c1ccccc1 [compound 62]
–	–	1.7 % of Ctl	–	12.5 % of Ctl	–	–	COC(=O)COCCOCCNc1nc(Nc2ccccc2)nc(Nc2ccc(O)cc2)n1 [compound 49]
–	16.7 % of Ctl	–	78.4 % of Ctl	–	–	–	O=C(NCCOCCOCCNc1nc(Nc2ccc(O)cc2)nc(Nc2ccc(C(=O)NCc3ccncc3)cc2)n1)c1ccccc1 [compound 71]
–	–	5.7 % of Ctl	13.7 % of Ctl	37.1 % of Ctl	–	–	O=C(NCCCCNc1nc(Nc2ccccc2)nc(Nc2ccc(O)cc2)n1)c1ccccc1 [compound 84]
–	41.3 % of Ctl	–	75.0 % of Ctl	–	–	–	COCCOCCOCCNC(=O)c1ccc(Nc2nc(NCCOCCOCCNC(=O)c3ccccc3)nc(Nc3ccc(O)cc3)n2)cc1 [compound 19]
